This is an account of results in US9216992B2, “Thieno[3,2-c]pyridine potassium channel inhibitors” (Xention Limited, priority 2005, dated 2015).

One assay has as its target T1, human Kv1.3 (Homo sapiens, UniProt P22001).
T1 construct: expressed in transfected cells; host or cells: stably transfected cells
Briefly: Kv1.3 Autopatch Electrophysiology. The settings on record: 1 μM compound, CHO cells stably transfected with human Kv1.3, AutoPatch whole cell mode, room temperature; for inhibition at 1 µM: read-out: Kv 1.3% Inhibition at 1 μM. It counts as cell-based. As to the method: Kv1.3 Autopatch Electrophysiology Method
Cells stably transfected with cDNA for human Kv1.3 (in pcDNA3.1) were grown in Ex-cell 302 serum-free medium for CHO cells, supplemented with 10 μl/ml [100×] glutamine, 500 μg/ml G418 ([…]), and 1% HT supplement (50×, hypoxanthine and thymidine). Compounds were tested on these cells using the AutoPatch technology in whole cell mode.
The external bathing solution contained (in mM): 150 NaCl, 10 KCl, 1 MgCl2, 3 CaCl2, 10 HEPES, pH 7.4 with NaOH. Patch pipettes were filled with an electrode solution of composition (in mM): 100 K-Gluconate, 20 KCl, 1 MgCl2, 1 CaCl2, 10 HEPES, 11 EGTA, 5 ATP—Na2, 2 Glutathione pH 7.2 with KOH.
(§1) Compounds were dissolved in DMSO (100%) and made up in the external bather at a concentration of 1 μM. All experiments were conducted at room temperature (22-24° C.).
(§2) A cell suspension (10 ml), with a density of 100,000 cells/ml, was aliquoted into a 15 ml centrifuge tube and transferred to an incubator (37° C., 5% CO2) for approximately one hour before use. Following 60 min incubation, a tube was taken and centrifuged at 1000 rpm for 4 mins at room temperature. 9.5 ml supernatant was thence discarded, leaving a cell pellet at the bottom of the tube. The pellet was then resuspended using 100 μl of cold (4° C.), filtered (0.22 μm), 0.2% BSA/bather solution (0.02 g BSA/10 ml bather). The bottom of the tube was manually agitated gently until the solution became cloudy with cells. The 100 μl cell resuspension solution was then stored on the bench at 4° C. (using a Peltier-based temperature control device) until used.
(§3) A length of capillary glass (1B150F-4, WPI) was dipped into the cell suspension solution, such that ˜3 cm column of fluid was taken up by capillary action. A Ag/AgCl wire was dropped into the non-dipped end of the capillary also. The outside of the solution-filled end of the capillary was then dried and the capillary was loaded into the AutoPatch™. Borosilicate glass patch pipettes (from 1.5 mm OD, thin-walled filamented, GC150-TF capillary glass, Harvard) were pulled using a DMZ pipette puller (Zeitz Instruments), and were back-filled using the internal pipette solution, being careful that no bubbles remain at the tip or in the body of the pipette. Patch pipettes typically had resistances of 2.3-3.5 MΩ. Once filled, the pipette tip and a proportion of the shaft (˜15 mm) were dipped into Sigmacote (Sigma). The recording pipette was then loaded into the AutoPatch™. Automated patch-clamping was initiated by the operator, but thereafter AutoPatch.exe continued the experiment providing that pre-set conditions and criteria were satisfied.
(§4) Whole cell patch-clamp recordings were made using the AutoPatch™ rig, which incorporated an EPC9 or EPC10 amplifier (HEKA, Germany) under control of Pulse software (v8.54 or v8.76, HEKA, Germany), a motion controller with 2 translators (Newport, UK), valve controller (VF1) and a c-level suction device all at room temperature (22-24° C.). This equipment was completely under the control of AutoPatch.exe and operator intervention was only made when there was a requirement to refill the drug reservoirs or to prevent the loss of a cell due to a technical error. Cells with an Rseries greater than 18 MΩ were discounted from the experiment.
Qualification stages prior to perfusion and drug application ensured that the observed current met the criteria for the experiment. Only those cells with an IK>400 pA were used for experiments. Cells were continuously perfused with external solution at a flow rate of 1.8-2 ml/minute. […] Online analysis of the hKv1.3 current during the application of compounds was performed by the AutoPatch™ software. Voltage-step protocols and analysis of data was performed as described for conventional electrophysiology.
(§5) Electrophysiology voltage-step protocols and analysis of data was performed as follows. Data was sampled at 5 kHz, and filtered with a −3 dB bandwidth of 2.5 kHz. Cells were held at a voltage of −80 mV. […]

The target of a further assay is T2, human Kv1.5 (Homo sapiens, UniProt P22460).
T2 construct: expressed in transfected cells; host or cells: stably transfected cells
The assay can be described thus: Kv1.5 Autopatch Electrophysiology. Conditions: 1 μM compound, CHO cells stably transfected with human Kv1.5, AutoPatch whole cell mode, room temperature; for inhibition at 1 µM: read-out: Kv 1.5% Inhibition at 1 μM. It counts as cell-based. As to the method: Kv1.5 Autopatch Electrophysiology Method
Cells stably transfected with cDNA for human Kv1.5 (in pEF6::VA-His-TOPO) were grown in Ex-cell 302 serum-free medium for CHO cells, supplemented with 10 μl/ml [100×] glutamine, 5 μg/ml blasticidin and 1% HT supplement (50×, hypoxanthine and thymidine). Compounds were tested on these cells using the AutoPatch technology in whole cell mode.
The external bathing solution contained (in mM): 150 NaCl, 10 KCl, 1 MgCl2, 3 CaCl2, 10 HEPES, pH 7.4 with NaOH. Patch pipettes were filled with an electrode solution of composition (in mM): 160 KCl, 0.5 MgCl2, 10 HEPES, 1 EGTA, pH 7.4 with KOH.
as §1, §2, §3, §4
Qualification stages prior to perfusion and drug application ensured that the observed current met the criteria for the experiment. Only those cells with an IK>500 pA were used for experiments. Cells were continuously perfused with external solution at a flow rate of 1.8-2 ml/minute. […] Online analysis of the hKv1.5 current during the application of compounds was performed by the AutoPatch™ software. Voltage-step protocols and analysis of data was performed as described for conventional electrophysiology.
as §5

T2 sequence (P22460 whole entry): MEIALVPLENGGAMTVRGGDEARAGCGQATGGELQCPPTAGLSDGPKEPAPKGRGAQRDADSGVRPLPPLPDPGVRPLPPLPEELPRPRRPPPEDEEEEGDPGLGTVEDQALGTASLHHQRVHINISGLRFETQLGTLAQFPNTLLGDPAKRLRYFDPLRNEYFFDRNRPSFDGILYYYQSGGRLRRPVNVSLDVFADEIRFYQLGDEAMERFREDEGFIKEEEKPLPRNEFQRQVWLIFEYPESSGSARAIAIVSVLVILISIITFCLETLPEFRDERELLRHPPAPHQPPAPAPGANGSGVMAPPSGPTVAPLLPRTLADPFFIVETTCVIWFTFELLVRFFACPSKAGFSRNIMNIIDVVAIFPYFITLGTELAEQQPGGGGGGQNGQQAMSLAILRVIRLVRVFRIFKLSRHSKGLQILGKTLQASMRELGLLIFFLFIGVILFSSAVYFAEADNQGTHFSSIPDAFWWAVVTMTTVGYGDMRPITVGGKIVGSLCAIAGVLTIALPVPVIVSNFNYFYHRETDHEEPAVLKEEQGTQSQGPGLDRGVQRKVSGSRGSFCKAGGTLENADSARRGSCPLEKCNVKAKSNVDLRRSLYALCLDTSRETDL
T1 sequence (P22001 whole entry): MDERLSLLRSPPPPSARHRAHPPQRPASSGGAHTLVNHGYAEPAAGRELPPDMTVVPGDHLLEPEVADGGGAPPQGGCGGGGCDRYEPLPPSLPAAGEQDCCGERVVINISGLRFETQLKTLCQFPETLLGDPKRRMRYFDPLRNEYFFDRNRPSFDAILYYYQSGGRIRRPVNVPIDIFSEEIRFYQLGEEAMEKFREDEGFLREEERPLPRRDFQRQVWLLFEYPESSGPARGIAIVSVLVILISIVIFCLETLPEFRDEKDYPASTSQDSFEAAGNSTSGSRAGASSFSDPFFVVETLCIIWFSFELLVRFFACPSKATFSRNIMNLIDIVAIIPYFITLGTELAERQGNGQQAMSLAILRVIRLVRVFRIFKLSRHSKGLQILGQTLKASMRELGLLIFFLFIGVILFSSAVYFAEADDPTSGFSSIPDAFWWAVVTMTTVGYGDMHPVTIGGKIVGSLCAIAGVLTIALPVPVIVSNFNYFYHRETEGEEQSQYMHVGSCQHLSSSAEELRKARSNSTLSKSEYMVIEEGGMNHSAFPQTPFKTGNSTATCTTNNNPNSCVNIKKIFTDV

Regarding `c1ccc(CNc2nccc3scc(-c4ccc5c(c4)OCO5)c23)cc1` [Example 25, (3-Benzo[1,3]dioxol-5-yl-thieno[3,2-c]pyridin-4-yl)-benzyl-amine], the inhibition at 1 µM worked out at 58.1% at human Kv1.3 and 70.5% at human Kv1.5.

On to `c1cc2scc(-c3ccc4c(c3)OCO4)c2c(NCc2ccc3c(c2)OCCO3)n1` [Example 20, (3-Benzo[1,3]dioxol-5-yl-thieno[3,2-c]pyridin-4-yl)-(2,3-dihydro-benzo[1,4]dioxin-6-ylmethyl)-amine], for which the inhibition at 1 µM at human Kv1.3 was determined as 83.5%; on human Kv1.5, 90.2%.

In the case of `c1ccc(-c2csc3ccnc(NCc4ccc5c(c4)OCCO5)c23)cc1` [Example 18, (2,3-Dihydro-benzo[1,4]dioxin-6-ylmethyl)-(3-phenyl-thieno[3,2-c]pyridin-4-yl)-amine], the inhibition at 1 µM at human Kv1.3 was 76.9%; at human Kv1.5, 85.3%.

`Fc1ccc(-c2csc3ccnc(NCc4ccc5c(c4)OCCO5)c23)cc1` [Example 17, (2,3-Dihydro-benzo[1,4]dioxin-6-ylmethyl)-[3-(4-fluoro-phenyl)-thieno[3,2-c]pyridin-4-yl]-amine]: the inhibition at 1 µM worked out at 59.6% on human Kv1.3 and 86.1% on human Kv1.5.

For `Cc1ccc(-c2csc3c(-c4ccccc4F)cnc(NCc4ccccc4)c23)cc1` [Example 43, Benzyl-[7-(2-fluoro-phenyl)-3-p-tolyl-thieno[3,2-c]pyridin-4-yl]-amine], the results for the inhibition at 1 µM on human Kv1.3 and on human Kv1.5 were 13.6% and 26.3%, respectively.

As to `Cc1ccc(-c2csc3c(-c4ccc(O)cc4)cnc(NCc4ccccc4)c23)cc1` [Example 37, 4-(4-Benzylamino-3-p-tolyl-thieno[3,2-c]pyridin-7-yl)-phenol], the values for the inhibition at 1 µM at human Kv1.3 and on human Kv1.5 were 15.7% and 39.9%, respectively.

Turning to `Cc1ccc(-c2csc3c(-c4ccccc4)cnc(NCc4ccccc4)c23)cc1` [Example 34, Benzyl-(7-phenyl-3-p-tolyl-thieno[3,2-c]pyridine-4-yl)-amine], the inhibition at 1 µM at human Kv1.3 is 8.1%; at human Kv1.5 it was 25.6%.

For `Cc1ccc(-c2csc3c(-c4ccncc4)cnc(NCc4ccccc4)c23)cc1` [Example 40, Benzyl-(7-pyridin-4-yl-3-p-tolyl-thieno[3,2-c]pyridin-4-yl)-amine], the values for the inhibition at 1 µM at human Kv1.3 and on human Kv1.5 were 49.9% and 36.3%, respectively.

In the case of `Cc1ccc(-c2cnc(NCc3ccccc3)c3c(-c4ccc(C)cc4)csc23)cc1` [Example 33, Benzyl-(3,7-di-p-tolyl-thieno[3,2-c]pyridine-4-yl)-amine], the inhibition at 1 µM at human Kv1.3 came to 24.4%; at human Kv1.5, 39.2%.

Take `Cc1ccc(-c2csc3c(-c4ccc(F)cc4)cnc(NCc4ccccc4)c23)cc1` [Example 45, Benzyl-[7-(4-fluoro-phenyl)-3-p-tolyl-thieno[3,2-c]pyridin-4-yl]-amine]: the values for the inhibition at 1 µM on human Kv1.3 and at human Kv1.5 were 34% and 24.7%, respectively.

`COc1cccc(-c2csc3ccnc(NCc4cccs4)c23)c1` [Example 13, [3-(3-Methoxy-phenyl)-thieno[3,2-c]pyridin-4-yl]-thiophen-2-ylmethyl-amine]: the inhibition at 1 µM at human Kv1.3 is 83.2%; at human Kv1.5 it was 89.4%.

`Cc1ccc(-c2csc3c(-c4cccnc4)cnc(NCc4ccccc4)c23)cc1` [Example 39, Benzyl-(7-pyridin-3-yl-3-p-tolyl-thieno[3,2-c]pyridin-4-yl)-amine]: the inhibition at 1 µM on human Kv1.3 was determined as 50.1%; at human Kv1.5, 90%.

As for `Cc1ccc(-c2csc3ccnc(NCc4ccccc4)c23)cc1` [Example 24, Benzyl-(3-p-tolyl-thieno[3,2-c]pyridin-4-yl)-amine], the inhibition at 1 µM is 81.2% on human Kv1.3 and 90.2% on human Kv1.5.

As to `COc1cccc(-c2csc3ccnc(NCc4ccccc4)c23)c1` [Example 23, Benzyl-[3-(3-methoxy-phenyl)-thieno[3,2-c]pyridin-4-yl]-amine], the results for the inhibition at 1 µM at human Kv1.3 and on human Kv1.5 were 58% and 79.6%, respectively.

On to `c1ccc(CNc2nccc3scc(-c4ccccc4)c23)cc1` [Example 21, Benzyl-(3-phenyl-thieno[3,2-c]pyridin-4-yl)-amine], for which the inhibition at 1 µM on human Kv1.3 was 61.5%; at human Kv1.5, 77.4%.

Take `COc1cccc(-c2csc3ccnc(NCc4ccco4)c23)c1` [Example 28, Furan-2-ylmethyl-[3-(3-methoxy-phenyl)-thieno[3,2-c]pyridin-4-yl]-amine]: the inhibition at 1 µM on human Kv1.3 came to 72.7%; at human Kv1.5, 91.9%.

`c1csc(CNc2nccc3scc(-c4ccc5c(c4)OCO5)c23)c1` [Example 16, (3-Benzo[1,3]dioxol-5-yl-thieno[3,2-c]pyridin-4-yl)-thiophen-2-ylmethyl-amine]: the inhibition at 1 µM at human Kv1.3 was determined as 90.3%; on human Kv1.5, 81.2%.

Consider `Cc1cccnc1CNc1nccc2scc(-c3ccccc3)c12` [Example 31, (3-Methyl-pyridin-2-ylmethyl)-(3-phenyl-thieno[3,2-c]pyridin-4-yl)-amine], for which the “Kv 1.3% Inhibition at 1 μM” value on human Kv1.3 worked out at 71.8%. In addition, the “Kv 1.5% Inhibition at 1 μM” value at human Kv1.5 stood at 78.4%.

Consider `c1ccc(-c2csc3ccnc(NCc4ccco4)c23)cc1` [Example 26, Furan-2-ylmethyl-(3-phenyl-thieno[3,2-c]pyridin-4-yl)amine], for which the inhibition at 1 µM on human Kv1.3 is 48.4%; on human Kv1.5 it was 80.4%.

In the case of `Cc1ccc(-c2csc3ccnc(NCc4ccco4)c23)cc1` [Example 29, Furan-2-ylmethyl-(3-p-tolyl-thieno[3,2-c]pyridin-4-yl)-amine], the inhibition at 1 µM at human Kv1.3 came to 66.2%; on human Kv1.5 it was 86.1%.

With `Cc1cc2scc(-c3ccccc3)c2c(NCc2ccccc2)n1` [Example 50, Benzyl-(6-methyl-3-phenyl-thieno[3,2-c]pyridin-4-yl)-amine], the inhibition at 1 µM was 23.7% at human Kv1.3 and 50.8% on human Kv1.5.

Take `Cc1ccc(-c2csc3c(-c4ccc(N(C)C)cc4)cnc(NCc4ccccc4)c23)cc1` [Example 42, Benzyl-[7-(4-dimethylamino-phenyl)-3-p-tolyl-thieno[3,2-c]pyridin-4-yl]-amine]: the inhibition at 1 µM on human Kv1.3 was determined as 24.1%; on human Kv1.5, 14.5%.

Consider `Cc1ccc(-c2csc3c(-c4ccccc4O)cnc(NCc4ccccc4)c23)cc1` [Example 35, 2-(4-Benzylamino-3-p-tolyl-thieno[3,2-c]pyridin-7-yl)-phenol], for which the inhibition at 1 µM at human Kv1.3 stood at 12.6%; on human Kv1.5, 33.3%.

As usually defined, the inhibition is the change of the read-out against control, counted positive when it falls.
